According to patent US20260041653A1, “AN HDAC INHIBITOR FOR TREATING CANCER WITH A MODIFIED STK11 ACTIVITY OR EXPRESSION” (Tango Therapeutics, Inc., priority 2022, published 2026):

Experiments:
[1] = test system: CT26_STK11KO tumor (KRAS G12D); assay: Anti-tumor efficacy in CT26_STK11KO colon carcinoma model; assay type: in vivo, mouse; conditions: for ORR % / TGI %: CT26 STK11KO
Procedure: In this example, the anti-tumor activity of a combination treatment of anti-PD1 antibody with Compound I was determined in vivo in STK11-deleted syngeneic mouse models.
Briefly, mice were inoculated with STK11-deleted CT26 (murine colorectal carcinoma cell line) tumor model in a manner similar to that described in Example 1. The tumor model was resistant to murine anti-PD1 antibody by knockout of the STK11. Mice were treated with Compound I orally once daily and with anti-PD1, anti-IgG2a control, or anti-PD1 control twice per week as indicated. Tumor volume and survival was monitored over the course of treatment and plotted by individual animal for tumor volume (FIG. 7A) and by group for survival (FIG. 7B).
(§1) An in vivo anti-tumor efficacy of combination treatment of Anti-PD1 and Compound I in a CT26 mouse model was evaluated. CT26 is a colon carcinoma cell line with an endogenous KRAS G12D mutation. The experiment was performed in the parental/wild type line and in a line engineered with an STK11 knock-out (CT26_STK11KO) resulting in an anti-PD1 resistant model with lower CD8+ T cell infiltration.
In each of the experiments, the animals (8/group) were divided into four groups. Group I was treated with a control antibody Anti-IgG2, group 2 was treated with Compound I 75 mg/kg, group 3 was treated with anti-PD1 antibody, and group 4 was treated with Compound I 75 mg/kg and anti-PD1 antibody. Tumor volume and survival was monitored over the course of treatment. For the CT26_STK11KO model, the tumor volume was plotted by individual animal (FIG. 15A) and by treatment group (FIG. 15B). Survival was plotted by treatment group (FIG. 15C).
as §1, with “anti-CTLA4” for “Anti-PD1”, “anti-CTLA4-resistant model.” for “anti-PD1 resistant model with lower CD8+ T cell infiltration.”
An in vivo anti-tumor efficacy of double combination treatment of Anti-CTLA4 and Compound I in a CT26 syngeneic model was performed. CT26 is a colon carcinoma cell line. The experiment was also performed with an STK11-null CT26 model, this model is CTLA4 resistant.
There were 8 mice per group. Group I was treated with a control antibody Anti-IgG2, group 2 was treated with Compound I 75 mg/kg, group 3 was treated with anti-CTLA4 antibody, and group 4 was treated with Compound I 75 mg/kg and anti-CTLA4 antibody. Tumor volume was monitored over the course of treatment. The tumor volume was plotted by treatment group (FIG. 16A), and the individual animals were plotted for group 1 and group 4 (FIG. 16B), for the parental model. The tumor volume was plotted by treatment group (FIG. 16C), and the individual animals were plotted for group 1 and group 4 (FIG. 16D), for the STK11 knockout model.

[2] = Stability in human liver microsomes; assay type: in vitro ADME; conditions: 240 minutes; HLM protein concentration 0.6 mg/ml
Procedure: (§2) Drug metabolizing enzymes involved in the biotransformation of Compound I were investigated using human liver microsomes (HLM) and recombinant enzymes. Compound I was stable in HLMs (>93% remaining after 240 minutes of incubation with HLM protein concentration at 0.6 mg/ml). CYP selective inhibitor experiments were not performed due to lack of appreciable Compound I turnover.

CYP2C19 = CYP2C19 (Homo sapiens, UniProt P33261); assay: Metabolism by recombinant human CYP2C19; assay type: in vitro ADME; conditions: read-out: terminal half life (T1/2), rh CYP2C19
Chain of CYP2C19 (P33261 whole entry): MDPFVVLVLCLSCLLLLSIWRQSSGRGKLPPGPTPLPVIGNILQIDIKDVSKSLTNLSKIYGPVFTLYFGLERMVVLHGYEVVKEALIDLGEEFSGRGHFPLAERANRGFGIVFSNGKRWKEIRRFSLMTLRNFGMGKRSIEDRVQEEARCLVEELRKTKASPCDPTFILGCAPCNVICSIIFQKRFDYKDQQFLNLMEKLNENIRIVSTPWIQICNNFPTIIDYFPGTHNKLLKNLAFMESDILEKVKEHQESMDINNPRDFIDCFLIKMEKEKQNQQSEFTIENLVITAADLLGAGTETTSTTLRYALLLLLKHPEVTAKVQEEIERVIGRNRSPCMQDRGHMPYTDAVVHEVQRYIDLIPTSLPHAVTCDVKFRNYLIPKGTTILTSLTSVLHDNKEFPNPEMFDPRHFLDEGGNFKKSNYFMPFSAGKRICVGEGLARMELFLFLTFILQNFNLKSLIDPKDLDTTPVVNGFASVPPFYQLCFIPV
Procedure: as §2

acetyl-histone H3 = assay: PK/PD study, acetyl-histone H3 in tumor by Western blot; assay type: in vivo, C57BL/6 mice
Procedure: In a separate PK/PD study, MC38 tumor-bearing female C57BL/6 mice (12/group) were assigned to treatment groups with similar mean tumor volumes of approximately 430 mm^3 and treated with vehicle (5% N,N-dimethylacetamide [DMA]+30% polyethylene glycol [PEG] 400+65% of 30% 2-hydroxypropyl-beta-cyclodextrin [HP-β-CD] in water) or Compound I at 30, 100, and 300 mg/kg once daily (QD) for 2 days. Plasma samples were collected at 1, 2, 8 and 24 hours after last dose and analyzed for Compound I concentrations. Peripheral blood mononuclear cells (PBMC) and tumor samples were harvested at 2, 8, and 24 hours after last dose. The PBMC samples were processed for determination of mean florescent level of acetyl-histone H2B by flow cytometry. Tumor samples were processed for determination of protein levels of acetyl-histone H3 by Western blot.

[3] = Compound I 75 mg/kg QD alone, second of two values (two experiments, Examples 14 and 15)
[4] = Compound I 75 mg/kg QD, antibodies 10 mg/kg, for Compound I alone the first of two printed values

Work on `C[S@@](=N)(=O)c1ccc(C(=O)Nc2cc(-c3ccc(F)cc3)ccc2N)cc1` [Compound I, (R)—N-(4-amino-4′-fluoro-[1,1′-biphenyl]-3-yl)-4-(S-methylsulfonimidoyl)benzamide] yielded an ORR % [1, 3] of 38%, a TGI % [1, 3] of 70% and an ORR % [1, 4] of 0%. For the same molecule, the TGI % [1, 4] was 39%, the “resistance to immune checkpoint blockade driven by loss of STK11” value ([1]; tumor models for colon adenocarcinoma and colorectal carcinoma (Examples 1 and 5)) was “reverses resistance to immune checkpoint blockade” and the “remaining after incubation with HLM” value [2] was greater than 93%. For the same molecule, the half-life (CYP2C19) was greater than 60 min, the “maximal induction of histone acetylation in tumor” value (acetyl-histone H3; 300 mg/kg QD, 2 days, 24 hours after last dose, vs vehicle control) was 3.7 fold and the “tumor acetyl-histone protein levels” value (acetyl-histone H3; 30, 100, 300 mg/kg QD, starting 2 hours after last dose) was “dose-dependent increase”.
